{"source": "patent US20260216123A1", "about": "“PHARMACEUTICAL COMPOSITION FOR PREVENTING OR TREATING DEGENERATIVE OSTEOARTHRITIS” (GLACEUM INC., priority 2023, published 2026)", "format_in_all_cases": "in vivo", "key": {"MIA-induced OA rat model [1]": {"system": "MIA-induced OA rat model", "experiment": "Pain suppression (nociceptive pain threshold, dynamic plantar aesthesiometer) in MIA-induced OA rat model", "conditions": "FIG. 1", "experimental": "All animals were allowed to acclimatize for one week after introduction to the laboratory environment. On the day of the start of the experiment, monosodium iodoacetate (MIA, Sigma, Cat. No. 12512) was dissolved in saline for injection at a concentration of 30 mg/mL, and 50 μL of the solution was administered once on the day of the start of the experiment. The animals were divided into groups as follows. The animals were randomly distributed so that the average of each group was distributed as evenly as possible according to the pain threshold evaluation values ranked, so as to obtain the number specified in the “Constitution of Test Groups” table. Individual identification was done by writing numbers directly on the tails of the animals. Individual identification cards of different colors were attached to the housing boxes according to each dose. […]\nThe nociceptive pain threshold (g) was measured using a dynamic plantar aesthesiometer (Ugo Basile, 37400, Comerio, Italy), a device in which the force applied to the animal's paw gradually increases over a certain period of time. […] The results for the nociceptive pain threshold were calculated as paw withdrawal latency (sec) and paw withdrawal threshold (g)."}, "IL-6": {"system": "IL-6", "experiment": "Immunohistochemical analysis of knee joint tissue in MIA-OA animal model: IL-6", "conditions": "MIA-OA rat; immunohistochemistry; FIG. 5", "experimental": "(§1) All animals were allowed to acclimatize for one week after introduction to the laboratory environment. On the day of the start of the experiment, monosodium iodoacetate (MIA, Sigma, Cat. No. 12512) was dissolved in saline for injection at a concentration of 30 mg/mL, and 50 μL of the solution was administered once on the day of the start of the experiment. The animals were divided into groups as follows. The animals were randomly distributed so that the average of each group was distributed as evenly as possible according to the pain threshold evaluation values ranked, so as to obtain the number specified in the “Constitution of Test Groups” table. Individual identification was done by writing numbers directly on the tails of the animals. Individual identification cards of different colors were attached to the housing boxes according to each dose. An animal room usage record sheet containing the test number, animal room usage period, principal investigator name, subinvestigator name, emergency contact information, etc. was attached to the animal room entrance. […]\n(§2) The histopathological analysis of knee joint tissue was performed using the same model as that in Experimental Example 1. […] Then, the Dab-positive area expressing each cytokine in the synovium was extracted using ImageJ software (Wayne Rasband, NIH, USA) and expressed as a percentage relative to the total nuclear area."}, "MCP-1": {"system": "MCP-1", "experiment": "Immunohistochemical analysis of knee joint tissue in MIA-OA animal model: MCP-1", "conditions": "MIA-OA rat; immunohistochemistry; FIG. 6", "experimental": "as §1, §2"}, "RIPK3": {"system": "RIPK3", "experiment": "Immunohistochemical analysis of knee joint tissue in MIA-OA animal model: RIPK3", "conditions": "MIA-OA rat; immunohistochemistry; FIG. 8", "experimental": "as §1, §2"}, "[2]": {"system": "knee joint tissue of MIA-OA rat model", "experiment": "Histopathological analysis of knee joint tissue (Safranin O staining, OARSI and Mankin scores) in MIA-OA animal model", "experimental": "All animals were allowed to acclimatize for one week after introduction to the laboratory environment. On the day of the start of the experiment, monosodium iodoacetate (MIA, Sigma, Cat. No. 12512) was dissolved in saline for injection at a concentration of 30 mg/mL, and 50 μL of the solution was administered once on the day of the start of the experiment. The animals were divided into groups as follows. The animals were randomly distributed so that the average of each group was distributed as evenly as possible according to the pain threshold evaluation values ranked, so as to obtain the number specified in the “Constitution of Test Groups” table. Individual identification was done by writing numbers directly on the tails of the animals. Individual identification cards of different colors were attached to the housing boxes according to each dose. An animal room usage record sheet containing the test number, animal room usage period, principal investigator name, subinvestigator name, emergency contact information, etc. was attached to the animal room entrance. The test groups consisted of WT, vehicle, 25 mg/kg Compound 2, and 50 mg/kg Compound 2, respectively, which were administered orally once a day for a total of 21 days starting from 3 days after MIA administration.\nHistopathological analysis of knee joint tissue was performed using the same model as that in Experimental Example 1. For histopathological analysis, Safranin 0 staining was performed, and two evaluators scored the severity of osteoarthritis according to the following evaluation criteria. As the analysis criteria, OARSI and total Mankin scores were analyzed. The OARSI analysis criteria were scored as follows: 0: normal cartilage surface; 1: cartilage surface is normal but cell death is found; 2: disruption of the cartilage surface and fibrosis of the surface layer; 3: splitting along the longitudinal axis of cartilage; 4: damage and infiltration to the middle part of cartilage; 5: exposure of stromal bone area; and 6: complete cartilage damage and formation of osteophytes. The total Mankin score analysis criteria were analyzed for four items: structure (0-6), cell (0-3), Safranin 0 (0-4), and tidemark (0-1). A higher score for each item indicates more damage to chondrocytes cells and structure."}, "MMP3": {"system": "MMP3", "experiment": "Immunohistochemical analysis of knee joint tissue in MIA-OA animal model: MMP3", "conditions": "MIA-OA rat; immunohistochemistry; FIG. 7", "experimental": "as §1, §2"}, "MIA-induced OA rat model [3]": {"system": "MIA-induced OA rat model", "experiment": "Weight bearing (incapacitance meter) in MIA-induced OA rat model", "conditions": "FIG. 2", "experimental": "All animals were allowed to acclimatize for one week after introduction to the laboratory environment. On the day of the start of the experiment, monosodium iodoacetate (MIA, Sigma, Cat. No. 12512) was dissolved in saline for injection at a concentration of 30 mg/mL, and 50 μL of the solution was administered once on the day of the start of the experiment. The animals were divided into groups as follows. The animals were randomly distributed so that the average of each group was distributed as evenly as possible according to the pain threshold evaluation values ranked, so as to obtain the number specified in the “Constitution of Test Groups” table. Individual identification was done by writing numbers directly on the tails of the animals. […]\nWeight bearing was measured using the same model as that in Experimental Example 1. […] The weight bearing of each hind paw was measured using an incapacitance meter (Model 600, IITC, USA), a device for measuring weight bearing. […]\nWhen each animal was correctly positioned in the holder, the machine was operated, the measurement time was set to 5 seconds, and a total of two measurements were taken and averaged to determine the weight bearing (g) of each paw. […] The results of the weight-bearing measurement test were converted into weight bearing ratio using the following calculation formula and analyzed."}, "[4]": {"conditions": "oral once a day, 21 days, FIG. 4"}}}
{"smiles": "CCOc1ccc(C2COc3c(ccc4c3CCC(C)(C)O4)C2)c(O)c1", "note": "(centres unmarked) [Compound 2]", "values": [{"measurement": "pain caused by cartilage damage (nociceptive pain threshold)", "setting": "MIA-induced OA rat model [1]; 25 mg/kg and 50 mg/kg orally once a day for 21 days from 3 days after MIA", "value": "gradually reduced"}, {"measurement": "pain suppression efficacy compared with positive control celecoxib", "setting": "MIA-induced OA rat model [1]; oral once a day, 21 days", "value": "efficacy equivalent to that of the positive control, celecoxib"}, {"measurement": "IL-6 in knee joint tissue (Dab-positive area)", "setting": "IL-6", "value": "inhibited"}, {"measurement": "MCP-1 in knee joint tissue (Dab-positive area)", "setting": "MCP-1", "value": "inhibited"}, {"measurement": "RIPK3 in knee joint tissue (Dab-positive area)", "setting": "RIPK3", "value": "inhibited"}, {"measurement": "RIPK3 inhibition efficacy compared with positive control celecoxib", "setting": "RIPK3", "value": "better efficacy than celecoxib"}, {"measurement": "histopathology score efficacy compared with positive control celecoxib", "setting": "[2]; OARSI and Mankin scores, FIG. 4", "value": "efficacy equivalent to that of celecoxib"}, {"measurement": "Safranin 0 staining of the cartilage tissue", "setting": "[2]; oral once a day, 21 days, FIG. 3", "value": "improved"}, {"measurement": "Mankin score (severity of osteoarthritis)", "setting": "[2]; [4]", "value": "reduced"}, {"measurement": "ORASI score (severity of osteoarthritis)", "setting": "[2]; [4]", "value": "reduced"}, {"measurement": "MMP3 in knee joint tissue (Dab-positive area)", "setting": "MMP3", "value": "reduced"}, {"measurement": "MMP3 reduction efficacy compared with positive control celecoxib", "setting": "MMP3", "value": "better efficacy than celecoxib"}, {"measurement": "weight bearing following cartilage damage", "setting": "MIA-induced OA rat model [3]; 25 mg/kg and 50 mg/kg orally once a day for 21 days", "value": "reduced"}, {"measurement": "weight bearing efficacy compared with positive control celecoxib", "setting": "MIA-induced OA rat model [3]; oral once a day, 21 days", "value": "efficacy equivalent to that of celecoxib"}]}
